Laboratory results from patent US10112907B2, “Substituted indazoles for treating tendon and/or ligament injuries” (NOVARTIS AG, priority 2016, dated 2018).
Like-named read-outs stand apart in the source and are kept apart here.

System: Scleraxis (Scx) gene transcriptional activation in TT-D6 Scx-luciferase (ScxL) cell line
Test: SCX-LUC in vitro assay (Scx-luciferase reporter)
Format: cell-based
Conditions: Mus musculus
[1] = assays described above (Scx-Luc and ex vivo), read-out: EC50 in the assays described above
[2] = 96 h, Table 3, four days, read-out: Scx-Luc (EC50 μM)

| EC50 [1] [µM] | EC50 [2] [µM] | Structure (SMILES) |
| --- | --- | --- |
|  | 0.17 | Cc1cc(S(=O)(=O)N2CC(F)=C[C@H]2CO)ccc1-c1ccc2[nH]nc(N)c2c1C [Example 33, (S)-(1-((4-(3-amino-4-methyl-1H-indazol-5-yl)-3-methylphenyl)sulfonyl)-4-fluoro-2,5-dihydro-1H-pyrrol-2-yl)methanol] |
|  | 1.52 | Cc1cc(S(=O)(=O)N[C@@H]2CC[C@H](O)C2)ccc1-c1ccc2[nH]nc(N)c2c1C [Example 35, 4-(3-amino-4-methyl-1H-indazol-5-yl)-N-((1R,3S)-3-hydroxycyclopentyl)-3-methylbenzenesulfonamide] |
|  | 0.806 | Cc1cc(S(=O)(=O)N[C@]2(C)C[C@H](O)C2)ccc1-c1ccc2[nH]nc(N)c2c1C [Example 36, 4-(3-amino-4-methyl-1H-indazol-5-yl)-N-((1s,3s)-3-hydroxy-1-methylcyclobutyl)-3-methylbenzenesulfonamide] |
|  | 2.04 | Cc1c(-c2ccc(S(=O)(=O)N3CCC[C@H]3CO)cc2Cl)ccc2[nH]nc(N)c12 [Example 38, (S)-(1-((4-(3-amino-4-methyl-1H-indazol-5-yl)-3-chlorophenyl)sulfonyl)pyrrolidin-2-yl)methanol] |
|  | 0.362 | Cc1c(-c2ccc(S(=O)(=O)N[C@@H]3CCC[C@@H]3O)cc2Cl)ccc2[nH]nc(N)c12 [Example 39, 4-(3-amino-4-methyl-1H-indazol-5-yl)-3-chloro-N-((1R,2S)-2-hydroxycyclopentyl)benzenesulfonamide] |
|  | 1.33 | COc1c(-c2ccc(S(=O)(=O)N3CC(F)(F)C[C@H]3CO)cc2F)ccc2[nH]nc(N)c12 [Example 41, (S)-(1-((4-(3-amino-4-methoxy-1H-indazol-5-yl)-3-fluorophenyl)sulfonyl)-4,4-difluoropyrrolidin-2-yl)methanol] |
|  | 0.814 | Cc1c(-c2ccc(S(=O)(=O)N3CC(F)(F)C[C@H]3CO)cc2F)ccc2[nH]nc(N)c12 [Example 42, (S)-(1-((4-(3-amino-4-methyl-1H-indazol-5-yl)-3-fluorophenyl)sulfonyl)-4,4-difluoropyrrolidin-2-yl)methanol] |
|  | 1.19 | Cc1cc(S(=O)(=O)N2CC(F)(F)C[C@H]2CO)ccc1-c1ccc2[nH]nc(N)c2c1F [Example 44, (S)-(1-((4-(3-amino-4-fluoro-1H-indazol-5-yl)-3-methylphenyl)sulfonyl)-4,4-difluoropyrrolidin-2-yl)methanol] |
|  | 1.05 | Nc1n[nH]c2ccc(-c3ccc(S(=O)(=O)N4CC(F)(F)C[C@H]4CO)cc3Cl)c(F)c12 [Example 46, (S)-(1-((4-(3-amino-4-fluoro-1H-indazol-5-yl)-3-chlorophenyl)sulfonyl)-4,4-difluoropyrrolidin-2-yl)methanol] |
|  | 0.986 | Nc1n[nH]c2ccc(-c3ccc(S(=O)(=O)N4CC(F)(F)C[C@H]4CO)cc3F)c(Cl)c12 [Example 47, (S)-(1-((4-(3-amino-4-chloro-1H-indazol-5-yl)-3-fluorophenyl)sulfonyl)-4,4-difluoropyrrolidin-2-yl)methanol] |
|  | 0.854 | Cc1cc(S(=O)(=O)N[C@H]2CCC[C@H]2O)ccc1-c1ccc2[nH]nc(N)c2c1C [Example 48, 4-(3-amino-4-methyl-1H-indazol-5-yl)-N-((1S,2R)-2-hydroxycyclopentyl)-3-methylbenzenesulfonamide] |
|  | 0.578 | Cc1cc(S(=O)(=O)NC2CC(O)(c3ccccc3)C2)ccc1-c1ccc2[nH]nc(N)c2c1C (stereo not drawn) [Example 52, 4-(3-amino-4-methyl-1H-indazol-5-yl)-N-(3-hydroxy-3-phenylcyclobutyl)-3-methylbenzenesulfonamide] |
|  | 0.74 | Nc1n[nH]c2ccc(-c3ccc(S(=O)(=O)N4CC(F)(F)C[C@H]4CO)cc3Cl)c(Cl)c12 [Example 53, (S)-(1-((4-(3-amino-4-chloro-1H-indazol-5-yl)-3-chlorophenyl)sulfonyl)-4,4-difluoropyrrolidin-2-yl)methanol] |

Further lines, the compound ahead of its results:

| Structure (SMILES) | EC50 [1] [µM] | EC50 [2] [µM] |
| --- | --- | --- |
| Cc1cc(S(=O)(=O)NC2CCN(C)CC2)ccc1-c1ccc2[nH]nc(N)c2c1C [4-(3-amino-4-methyl-1H-indazol-5-yl)-3-methyl-N-(1-methylpiperidin-4-yl)benzenesulfonamide] | > 10 |  |
| Cc1cc(S(=O)(=O)N2C[C@H](O)[C@@H](F)C2)ccc1-c1ccc2[nH]nc(N)c2c1C [(3S,4S)-1-((4-(3-amino-4-methyl-1H-indazol-5-yl)-3-methylphenyl)sulfonyl)-4-fluoropyrrolidin-3-ol] | > 10 |  |
| Cc1c(-c2ccc(S(=O)(=O)N3CC(C)(C)C3)cc2Cl)ccc2[nH]nc(N)c12 [Example 1, 5-(2-chloro-4-((3,3-dimethylazetidin-1-yl)sulfonyl)phenyl)-4-methyl-1H-indazol-3-amine] |  | 0.773 |
| Cc1c(-c2ccc(S(=O)(=O)N3CC[C@@H](O)C3)cc2Cl)ccc2[nH]nc(N)c12 [Example 2, (R)-1-((4-(3-amino-4-methyl-1H-indazol-5-yl)-3-chlorophenyl)sulfonyl)pyrrolidin-3-ol] |  | 0.908 |
| Cc1c(-c2ccc(S(=O)(=O)N3CCC(O)C3)cc2F)ccc2[nH]nc(N)c12 (stereo not drawn) [Example 3, 1-((4-(3-amino-4-methyl-1H-indazol-5-yl)-3-fluorophenyl)sulfonyl)pyrrolidin-3-ol] |  | 2.83 |
| Nc1n[nH]c2ccc(-c3ccc(S(=O)(=O)N4CC[C@@H](O)C4)cc3F)c(Cl)c12 [Example 6, (R)-1-((4-(3-amino-4-chloro-1H-indazol-5-yl)-3-fluorophenyl)sulfonyl)pyrrolidin-3-ol] |  | 4.41 |
| Nc1n[nH]c2ccc(-c3ccc(S(=O)(=O)N4CC[C@@H](O)C4)cc3Cl)c(Cl)c12 [Example 8, (R)-1-((4-(3-amino-4-chloro-1H-indazol-5-yl)-3-chlorophenyl)sulfonyl)pyrrolidin-3-ol] |  | 3.6 |
| Cc1cc(S(=O)(=O)N[C@H]2C[C@H](O)C2)ccc1-c1ccc2[nH]nc(N)c2c1C [Example 9, 4-(3-amino-4-methyl-1H-indazol-5-yl)-N-((1r,3r)-3-hydroxycyclobutyl)-3-methylbenzenesulfonamide] |  | 4.96 |
| Cc1cc(S(=O)(=O)N2CC[C@H]2CO)ccc1-c1ccc2[nH]nc(N)c2c1C [Example 10, (S)-(1-((4-(3-amino-4-methyl-1H-indazol-5-yl)-3-methylphenyl)sulfonyl)azetidin-2-yl)methanol] |  | 1.79 |
| Cc1cc(S(=O)(=O)N2CC(O)C2)ccc1-c1ccc2[nH]nc(N)c2c1C [Example 11, 1-((4-(3-amino-4-methyl-1H-indazol-5-yl)-3-methylphenyl)sulfonyl)azetidin-3-ol] |  | 4.13 |
| Cc1cc(S(=O)(=O)N2CC(C)(O)C2)ccc1-c1ccc2[nH]nc(N)c2c1C [Example 13, 1-((4-(3-amino-4-methyl-1H-indazol-5-yl)-3-methylphenyl)sulfonyl)-3-methylazetidin-3-ol] |  | 2.33 |
| Cc1cc(S(=O)(=O)N[C@@H]2CCC[C@H]2O)ccc1-c1ccc2[nH]nc(N)c2c1C [Example 15, 4-(3-amino-4-methyl-1H-indazol-5-yl)-N-((1R,2R)-2-hydroxycyclopentyl)-3-methylbenzenesulfonamide] |  | 3.05 |
| Cc1cc(S(=O)(=O)N[C@@H]2CCCC[C@@H]2O)ccc1-c1ccc2[nH]nc(N)c2c1C [Example 17, 4-(3-amino-4-methyl-1H-indazol-5-yl)-N-((1R,2S)-2-hydroxycyclohexyl)-3-methylbenzenesulfonamide] |  | 4.8 |
| Cc1cc(S(=O)(=O)N2CCC[C@@H]2CO)ccc1-c1ccc2[nH]nc(N)c2c1C [Example 20, (R)-(1-((4-(3-amino-4-methyl-1H-indazol-5-yl)-3-methylphenyl)sulfonyl)pyrrolidin-2-yl)methanol] |  | 0.723 |
| Cc1cc(S(=O)(=O)N2CC(C#N)C2)ccc1-c1ccc2[nH]nc(N)c2c1C [Example 22, 1-((4-(3-amino-4-methyl-1H-indazol-5-yl)-3-methylphenyl)sulfonyl)azetidine-3-carbonitrile] |  | 0.879 |
| Cc1cc(S(=O)(=O)N2CCC(C#N)CC2)ccc1-c1ccc2[nH]nc(N)c2c1C [Example 23, 1-((4-(3-amino-4-methyl-1H-indazol-5-yl)-3-methylphenyl)sulfonyl)piperidine-4-carbonitrile] |  | 1.85 |
| Cc1cc(S(=O)(=O)NC2CC(F)(F)C2)ccc1-c1ccc2[nH]nc(N)c2c1C [Example 24, 4-(3-amino-4-methyl-1H-indazol-5-yl)-N-(3,3-difluorocyclobutyl)-3-methylbenzenesulfonamide] |  | 0.366 |
| Cc1cc(S(=O)(=O)NC2CCCC(O)C2)ccc1-c1ccc2[nH]nc(N)c2c1C (stereo not drawn) [Example 25, 4-(3-amino-4-methyl-1H-indazol-5-yl)-N-(3-hydroxycyclohexyl)-3-methylbenzenesulfonamide] |  | 0.606 |
| Cc1cc(S(=O)(=O)N[C@@H]2CCC[C@@H](C#N)C2)ccc1-c1ccc2[nH]nc(N)c2c1C [Example 26, 4-(3-amino-4-methyl-1H-indazol-5-yl)-N-((1R,3R)-3-cyanocyclohexyl)-3-methylbenzenesulfonamide] |  | 0.745 |
| Cc1cc(S(=O)(=O)N[C@H]2CC[C@@H](C#N)CC2)ccc1-c1ccc2[nH]nc(N)c2c1C [Example 27, 4-(3-amino-4-methyl-1H-indazol-5-yl)-N-((1s,4s)-4-cyanocyclohexyl)-3-methylbenzenesulfonamide] |  | 1.35 |
| Cc1cc(S(=O)(=O)N2CCC[C@H]2CO)ccc1-c1ccc2[nH]nc(N)c2c1Cl [Example 28, (S)-(1-((4-(3-amino-4-chloro-1H-indazol-5-yl)-3-methylphenyl)sulfonyl)pyrrolidin-2-yl)methanol] |  | 0.436 |
| Cc1cc(S(=O)(=O)N[C@@H]2CCC[C@@H]2O)ccc1-c1ccc2[nH]nc(N)c2c1Cl [Example 29, 4-(3-amino-4-chloro-1H-indazol-5-yl)-N-((1R,2S)-2-hydroxycyclopentyl)-3-methylbenzenesulfonamide] |  | 0.277 |
| Cc1cc(S(=O)(=O)N[C@H]2C[C@@H](O)C2)ccc1-c1ccc2[nH]nc(N)c2c1Cl [Example 30, 4-(3-amino-4-chloro-1H-indazol-5-yl)-N-((1s,3s)-3-hydroxycyclobutyl)-3-methylbenzenesulfonamide] |  | 0.752 |
